From patent publication US20210361750A1, “Anti-Viral Lactoferrin Facemask” (priority 2020, published 2021)

What was measured:
Vero E6 cells = settings: control without virus, 10 mg/mL
SARS-CoV-2 = experiment: Cyclodextrin testing: antiviral activity against SARS-CoV-2 in Vero E6 cells (CPE); assay type: cell-based; settings: pH 7; lactoferrin alone 10 mg/mL, cyclodextrin alone 10 mg/mL, or lactoferrin 5 mg/mL + cyclodextrin 10 mg/mL

Substance: cyclodextrin [cyclodextrin alone, reference compound]
- cytopathic effect on the cells (Vero E6 cells): neither the lactoferrin alone (10 mg/mL) or the cyclodextrin alone (10 mg/mL) had a cytopathic effect
- antiviral activity (cytopathic effect) (SARS-CoV-2): none of the experiments showed antiviral activity
